Data as given in article PMC8915833 (Proceedings of the National Academy of Sciences of the …, 2022).

Biological target: T1, PctA dCache_1 domain (Pseudomonas aeruginosa, UniProt G3XD24)
T1 sequence (G3XD24 32-276 limits assumed): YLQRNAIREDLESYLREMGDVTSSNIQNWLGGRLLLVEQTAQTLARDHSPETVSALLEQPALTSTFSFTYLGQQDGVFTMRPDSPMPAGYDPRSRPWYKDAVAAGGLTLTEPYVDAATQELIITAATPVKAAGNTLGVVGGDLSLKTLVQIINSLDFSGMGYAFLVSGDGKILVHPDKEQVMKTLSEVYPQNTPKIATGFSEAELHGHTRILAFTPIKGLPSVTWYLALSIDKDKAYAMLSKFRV
Assay: isothermal titration calorimetry
Format: binding

## C[C@H](N)C(=O)O [L-Ala]
  KD: Isothermal titration calorimetry study of L-Ala binding to the wild type and the mutated
